Literature values in US5266487A, “Apparatus for the treatment of lignocellulosic materials” (Knobbe, Martens, Olson & Bear, priority 1992, dated 1993).
Like-named read-outs stand apart in the source and are kept apart here.

Molecular target: alcohol oxidase (methanol oxidase), preferred enzyme from Hansenula polymorpha ATCC 34438 (Pichia angusta, UniProt P04841)
Sequence (P04841 whole entry): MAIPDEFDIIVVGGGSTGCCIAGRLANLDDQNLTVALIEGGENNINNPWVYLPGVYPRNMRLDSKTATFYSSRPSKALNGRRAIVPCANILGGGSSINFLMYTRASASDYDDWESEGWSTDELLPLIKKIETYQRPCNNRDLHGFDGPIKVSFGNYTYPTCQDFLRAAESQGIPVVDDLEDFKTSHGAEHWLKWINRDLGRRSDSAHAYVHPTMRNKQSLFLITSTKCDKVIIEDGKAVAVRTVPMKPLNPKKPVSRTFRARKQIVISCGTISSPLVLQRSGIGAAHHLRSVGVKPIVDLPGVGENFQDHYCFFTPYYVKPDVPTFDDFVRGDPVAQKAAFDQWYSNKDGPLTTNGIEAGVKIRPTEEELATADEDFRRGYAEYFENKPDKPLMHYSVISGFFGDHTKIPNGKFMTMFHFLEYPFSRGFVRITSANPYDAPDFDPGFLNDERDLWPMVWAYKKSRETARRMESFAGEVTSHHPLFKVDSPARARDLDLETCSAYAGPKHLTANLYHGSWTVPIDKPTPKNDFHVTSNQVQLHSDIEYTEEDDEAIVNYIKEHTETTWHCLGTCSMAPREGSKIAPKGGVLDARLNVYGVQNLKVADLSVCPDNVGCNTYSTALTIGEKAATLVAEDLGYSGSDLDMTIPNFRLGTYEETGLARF

Km (read-out: Km oxygen, see Van Dijken et al., Arch. Microbiol. 111, 137 (1976)) [µM] | SMILES | Km (read-out: Km methanol, see Van Dijken et al., Arch. Microbiol. 111, 137 (1976)) [µM]
 | CO [methanol] | 2000
400 | O=O [oxygen] | 
